Earlier results in patent publication US8129131B2, “Pin1 as a marker for abnormal cell growth” (Beth Israel Deaconess Medical Center, priority 1999, dated 2012).

System: Pin1 or its WW domain
Conditions: pre-incubation with various peptide concentrations before mitotic extracts; concentration-dependent

Sequence of Pin1 or its WW domain (Q13526 1-39 limits assumed): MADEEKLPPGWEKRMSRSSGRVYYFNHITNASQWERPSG

Substance: WFYpSPRLKK [Pintide]
- phosphoprotein-binding activity of Pin1 or its WW domain: significantly reduced
